Measured values taken from article PMC7164622, “Citrate lyase CitE in Mycobacterium tuberculosis contributes to mycobacterial survival under hypoxic conditions” (PLoS ONE, 2020).

How the values were obtained:
MtbCitE (CitE) [1] = target: T1, MtbCitE (CitE) (Mycobacterium tuberculosis, UniProt P9WPE1)
MtbCitE (CitE) [2] = target: T1, MtbCitE (CitE); remark: listed apart in the source
[3] = target: the molecule itself; assay: cross-linking; chemical cross-linking with 4 μM disuccinimidyl suberate (DSS), 10 mM CitE protein (so in the source), 100 mM NaH2PO4 pH 8.0, 150 mM NaCl, room temperature, half an hour, then SDS-PAGE

With Nc1ncnc2c1ncn2[C@@H]1O[C@H](COP(=O)(O)OP(=O)(O)OP(=O)(O)O)[C@@H](O)[C@H]1O [ATP] the “activity with 0-1.5 mM ATP” value (MtbCitE (CitE) [1]) was “the citrate cleavage activity of MtbCitE was inhibited by ATP”.

With O=C(O)CC(O)(CC(=O)O)C(=O)O [citrate] the citrate cleavage activity (MtbCitE (CitE) [2]) was “we predicted that purified MtbCitE had citrate lyase activity”.

B1: Mycobacterium tuberculosis CitE (MtbCitE), citrate lyase (enzyme)
chain: MNLRAAGPGWLFCPADRPERFAKAAAAADVVILDLEDGVAEAQKPAARNALRDTPLDPERTVVRINAGGTADQARDLEALAGTAYTTVMLPKAESAAQVIELAPRDVIALVETARGAVCAAEIAAADPTVGMMWGAEDLIATLGGSSSRRADGAYRDVARHVRSTILLAASAFGRLALDAVHLDILDVEGLQEEARDAAAVGFDVTVCIHPSQIPVVRKAYRPSHEKLAWARRVLAASRSERGAFAFEGQMVDSPVLTHAETMLRRAGEATSE
notes: also called Rv2498c; citrate lyase β-subunit
With B1 the “stoichiometry N” value [3] was 3.
